The values that follow come from US8666675B2, “Computer method and system for predicting physical properties using a conceptual segment model” (Aspen Technology, Inc., priority 2004, dated 2014).

Data set [1] can be described thus: Solvent characteristics (hydrophobic / polar / hydrophilic / complex). In kind it is physicochemical. An excerpt:
[…] conceptual segments were defined for nonelectrolyte molecules: a hydrophobic segment, a polar segment, a hydrophilic segment and a solvation segment. […] Real molecules in turn are used as reference molecules for the conceptual segments and available phase equilibrium data of these reference molecules are used to identify NRTL binary parameters for the conceptual segments. […] The study was focused on the 59 ICH solvents used in pharmaceutical process design.
Hydrocarbon solvents (aliphatic or aromatic), halogenated hydrocarbons, and ethers are mainly hydrophobic. Ketones, esters and amides are both hydrophobic and polar. Alcohols, glycols, and amines may have both substantial hydrophilicity and hydrophobicity. Acids are complex, with hydrophilicity, polarity, and hydrophobicity.

For data set [2] the following is noted: compiled from internet websites and Aspen Properties v2004.1; cited from earlier work.

As to `CCCCCC` [N-HEXANE, n-Hexane], the Solvent characteristics result in data set [1] is recorded as “Hydrophobic”.
In the case of `OCCO` [Ethylene-glycol], in data set [1], the Solvent characteristics entry was “Hydrophilic”.
Take `COCCO` [2-METHOXYETHANOL, 2-Methoxyethanol]: the Solvent characteristics result in data set [1] was “Hydrophobic/”.
Consider `CCCCO` [1-BUTANOL, 1-Butanol], for which the Solvent characteristics result in data set [1] is given as “Hydrophobic/”. In addition, the “dielectric constant at 298.15 K” value in data set [2] is given as 17.7.
Consider `c1ccc2c(c1)CCCC2` [1,2,3,4-TETRAHYDRONAPHTHALENE, 1,2,3,4-Tetrahydronaphthalene], for which, in data set [1], the Solvent characteristics entry is listed as “Hydrophobic”.
As to `ClC=CCl` [1,2-DICHLOROETHYLENE, 1,2-Dichloroethylene], the Solvent characteristics entry in data set [1] is listed as “Hydrophobic”. Further, the “dielectric constant at 298.15 K” value in data set [2] is on record as 4.6.
Consider `ClC(Cl)Cl` [CHLOROFORM, Chloroform], for which the Solvent characteristics result in data set [1] is “Hydrophobic”.
Consider `C[N+](=O)[O-]` [NITROMETHANE, Nitromethane], for which the Solvent characteristics result in data set [1] is “Polar”. In data set [2], the “dielectric constant at 298.15 K” value is listed as 6.26.
As for `COC(C)=O` [METHYL-ACETATE, Methyl-acetate], the Solvent characteristics result in data set [1] is “Polar”. Moreover, in data set [2], the “dielectric constant at 298.15 K” value was 6.68.
As for `CCOCC` [DIETHYL-ETHER, Diethyl-ether], the Solvent characteristics entry in data set [1] is recorded as “Hydrophobic”. In addition, the “dielectric constant at 298.15 K” value in data set [2] was 4.26.
Consider `CC(C)c1ccccc1` [CUMENE, Cumene], for which the Solvent characteristics result in data set [1] is given as “Hydrophobic”. Moreover, the “dielectric constant at 298.15 K” value in data set [2] is recorded as 2.22.
In the case of `Cc1cccc(C)c1` [M-XYLENE, m-Xylene], in data set [1], the Solvent characteristics result was “Hydrophobic”. Besides, the “dielectric constant at 298.15 K” value in data set [2] is listed as 2.24.
For `O` [WATER, Water], in data set [1], the Solvent characteristics entry was “Hydrophilic”. Also, the “dielectric constant at 298.15 K” value in data set [2] is recorded as 78.54.
In the case of `C1COCCO1` [1,4-DIOXANE, 1,4-Dioxane], the Solvent characteristics entry in data set [1] is given as “Polar”. In addition, the “dielectric constant at 298.15 K” value in data set [2] is 2.21.
Regarding `CC(Cl)(Cl)Cl` [1,1,1-TRICHLOROETHANE, 1,1,1-Trichloroethane], the Solvent characteristics entry in data set [1] is on record as “Hydrophobic”. Also, the “dielectric constant at 298.15 K” value in data set [2] is listed as 7.5.
Regarding `CCCCCCCCO` [1-OCTANOL, 1-Octanol], the Solvent characteristics entry in data set [1] is on record as “Hydrophobic/”. Further, in data set [2], the “dielectric constant at 298.15 K” value is given as 10.3.
As to `CCOC=O` [ETHYL-FORMATE, Ethyl-formate], the Solvent characteristics entry in data set [1] is reported as “Polar”. The “dielectric constant at 298.15 K” value in data set [2] is listed as 7.16.
For the compound `c1ccccc1` [BENZENE, Benzene], in data set [1], the Solvent characteristics entry is “Hydrophobic”. Also, the “dielectric constant at 298.15 K” value in data set [2] was 2.27.
`ClC(Cl)(Cl)Cl` [CARBON-TETRACHLORIDE, Carbon-tetrachloride]: in data set [1], the Solvent characteristics result was “Hydrophobic”. For the same compound, the “dielectric constant at 298.15 K” value in data set [2] is recorded as 2.23.
As for `CC(C)=O` [ACETONE, Acetone], in data set [1], the Solvent characteristics result is listed as “Polar”. Also, in data set [2], the “dielectric constant at 298.15 K” value is recorded as 20.83.
With methyl-butyl-ketone (2-hexanone), the Solvent characteristics entry in data set [1] is recorded as “Hydrophobic/Polar”. For the same compound, the “dielectric constant at 298.15 K” value in data set [2] is 14.6.
For the compound `C[S+](C)[O-]` [Dimethyl-sulfoxide], the Solvent characteristics entry in data set [1] is listed as “Polar”. The “dielectric constant at 298.15 K” value in data set [2] is reported as 47.2.
On to `c1ccncc1` [PYRIDINE, Pyridine], for which the Solvent characteristics result in data set [1] is on record as “Polar”.
For `Clc1ccccc1` [CHLOROBENZENE, Chlorobenzene], the Solvent characteristics entry in data set [1] is “Hydrophobic”. In addition, the “dielectric constant at 298.15 K” value in data set [2] was 5.56.
Take `CC(C)CCO` [3-METHYL-1-BUTANOL, 3-Methyl-1-butanol]: in data set [1], the Solvent characteristics result is “Hydrophobic/”. Besides, the “dielectric constant at 298.15 K” value in data set [2] is on record as 14.7.
With `CC(=O)OCC(C)C` [ISOBUTYL-ACETATE, Isobutyl-acetate], in data set [1], the Solvent characteristics result is “Polar”. Besides, in data set [2], the “dielectric constant at 298.15 K” value is recorded as 5.6.
For the compound `CCCCOC(C)=O` [N-BUTYL-ACETATE, n-Butyl-acetate], in data set [1], the Solvent characteristics result is given as “Hydrophobic/Polar”. Besides, the “dielectric constant at 298.15 K” value in data set [2] was 5.1.
`CN1CCCC1=O` [N-METHYL-2-PYRROLIDONE, N-Methyl-2-pyrrolidone]: in data set [1], the Solvent characteristics result is on record as “Hydrophobic”. Besides, the “dielectric constant at 298.15 K” value in data set [2] is listed as 33.
Turning to `O=CO` [FORMIC-ACID, Formic-acid], in data set [1], the Solvent characteristics result is reported as “Complex”.
Take `C1CCCCC1` [CYCLOHEXANE, Cyclohexane]: the Solvent characteristics entry in data set [1] is listed as “Hydrophobic”. Moreover, the “dielectric constant at 298.15 K” value in data set [2] is given as 2.02.
On to `CO` [METHANOL, Methanol], for which, in data set [1], the Solvent characteristics entry is recorded as “Hydrophobic/”. In addition, the “dielectric constant at 298.15 K” value in data set [2] is 32.62.
On to `CCCO` [1-PROPANOL, 1-Propanol], for which the Solvent characteristics entry in data set [1] is listed as “Hydrophobic/”. For the same compound, in data set [2], the “dielectric constant at 298.15 K” value is recorded as 20.1.
Consider `CCOCCO` [2-ETHOXYETHANOL, 2-Ethoxyethanol], for which the Solvent characteristics result in data set [1] is given as “Hydrophobic/”.
For `NC=O` [FORMAMIDE, Formamide], the Solvent characteristics entry in data set [1] was “Complex”. In data set [2], the “dielectric constant at 298.15 K” value was 109.5.
Regarding `C=C(Cl)Cl` [1,1-DICHLOROETHYLENE, 1,1-Dichloroethylene], the Solvent characteristics entry in data set [1] was “Hydrophobic”. In data set [2], the “dielectric constant at 298.15 K” value is on record as 4.6.
As for `O=S1(=O)CCCC1` [SULFOLANE, Sulfolane], the Solvent characteristics entry in data set [1] was “Polar”. Further, the “dielectric constant at 298.15 K” value in data set [2] was 43.3.
On to `COCCOC` [1,2-DIMETHOXYETHANE, 1,2-Dimethoxyethane], for which the Solvent characteristics result in data set [1] is given as “Polar”.
Turning to `CC(C)O` [ISOPROPYL-ALCOHOL, Isopropyl-alcohol], the Solvent characteristics entry in data set [1] is on record as “Hydrophobic/”. Besides, the “dielectric constant at 298.15 K” value in data set [2] is on record as 19.9.
Regarding `CCOC(C)=O` [ETHYL-ACETATE, Ethyl-acetate], the Solvent characteristics entry in data set [1] was “Hydrophobic/Polar”. Besides, the “dielectric constant at 298.15 K” value in data set [2] was 6.02.
Turning to `CN(C)C=O` [N,N-DIMETHYLFORMAMIDE, N,N-Dimethylformamide], the Solvent characteristics entry in data set [1] is on record as “Polar”. In addition, in data set [2], the “dielectric constant at 298.15 K” value is given as 38.3.
Take `CCCCCO` [1-PENTANOL, 1-Pentanol]: the Solvent characteristics entry in data set [1] is listed as “Hydrophobic/”. Also, in data set [2], the “dielectric constant at 298.15 K” value was 13.9.
`CCC(C)O` (centres unmarked) [2-BUTANOL, 2-Butanol]: in data set [1], the Solvent characteristics result was “Hydrophobic/”. In addition, in data set [2], the “dielectric constant at 298.15 K” value is recorded as 15.8.
As to `CC(=O)OC(C)C` [ISOPROPYL-ACETATE, Isopropyl-acetate], the Solvent characteristics entry in data set [1] is on record as “Polar”.
In the case of `ClCCCl` [1,2-DICHLOROETHANE, 1,2-Dichloroethane], the Solvent characteristics result in data set [1] is on record as “Hydrophobic”. Moreover, in data set [2], the “dielectric constant at 298.15 K” value is 10.19.
Regarding `CC1CCCCC1` [METHYLCYCLOHEXANE, Methylcyclohexane], in data set [1], the Solvent characteristics result is given as “Polar”. Further, in data set [2], the “dielectric constant at 298.15 K” value is 2.02.
`CCN(CC)CC` [TRIETHYLAMINE, Triethylamine]: the Solvent characteristics entry in data set [1] is reported as “Hydrophobic/Polar”. The “dielectric constant at 298.15 K” value in data set [2] is 2.44.
With `CCCCCCC` [N-HEPTANE, n-Heptane], in data set [1], the Solvent characteristics entry was “Hydrophobic”. In addition, in data set [2], the “dielectric constant at 298.15 K” value is given as 1.92.
`CC#N` [ACETONITRILE, Acetonitrile]: in data set [1], the Solvent characteristics result is “Polar”. Further, in data set [2], the “dielectric constant at 298.15 K” value is 36.97.
